Data taken from patent publication US20250205385A1, “SILICONE MATERIAL, SILICONE TUBE, IMPLANT, PHARMACEUTICAL COMPOSITION, AND TEST METHOD FOR AMOUNT OF DRUG RELEASED” (SHENYANG XINGHUA PHARMACEUTICAL TECHNOLOGY CO., LTD, priority 2022, published 2025).
≈ marks a conversion by molar mass, not a printed value. Like-named read-outs stand apart in the source and are kept apart here.

Columns and labels:
[1] = Equilibrium solubility of gestodene bulk drug in water and normal saline, before and after micronization; assay type: physicochemical; settings: thermodynamic from solid, shaken 72 hours
Protocol: The prepared implant needs to be implanted in the subcutaneous tissue of the human upper arm, where the pH is close to neutral. Therefore, the release medium can be either water or normal saline. A supersaturated solution of the gestodene bulk drug in water and normal saline, both before and after micronization, was prepared. The solution was placed in a shaker and shaken for 72 hours. After shaking, the mixture was taken out and centrifuged, and the supernatant was filtered. The equilibrium solubility of the gestodene bulk drug in water and normal saline, both before and after micronization, was determined using high performance liquid chromatography. Based on the results, the appropriate release medium was selected.
In vitro release experiments were conducted on implants with different silicone tube wall thicknesses, medicinal core side areas, and drug particle sizes. Based on the in vitro release results, long-acting contraceptive implants with a daily drug release of 10-30 μg were prepared. The prepared implant was implanted in the subcutaneous tissue of the human upper arm, where the pH was close to neutral, allowing the release medium to be chosen between water and normal saline. A supersaturated solution of the gestodene bulk drug in water and normal saline, both before and after micronization, was prepared. The solution was placed in a shaker and shaken for 72 hours. After shaking, the mixture was taken out and centrifuged, and the supernatant was filtered. The equilibrium solubility of the gestodene bulk drug in water and normal saline, both before and after micronization, was determined using high performance liquid chromatography. Based on the results, the appropriate release medium was selected. Water was selected as the release medium for the in vitro release experiments. In the following experiments to investigate the in vitro release amount, the implant from Example 27 was subjected to depowdering pre-treatment, which involved adding 50 mL of anhydrous ethanol to a conical flask containing the implant, followed by ultrasonication for 1 minute. This process was repeated three times, after which 100 mL of distilled water was added and left overnight. The next day, the soaking solution was discarded, and the implant was placed in a shaker for in vitro release.

[2] = cited from earlier work
[3] = cited from earlier work; for Solubility: in water

solubility at 72 h ([1]; normal saline, saline or isotonic, drug particle size 2.81 μm (micronized), normal saline (NS)) [µg/mL] | solubility at 72 h ([1]; normal saline, saline or isotonic, drug particle size 80.30 μm (unmicronized), normal saline (NS)) [µg/mL] | solubility at 72 h ([1]; water or normal saline, drug particle size 2.81 μm (micronized), water) [µg/mL] | solubility at 72 h ([1]; water or normal saline, drug particle size 80.30 μm (unmicronized), water) [µg/mL] | Structure (SMILES) | bioavailability ([2]; background statement) [%] | daily release sufficient to produce a contraceptive effect ([2]; humans, review of the literature) [µg] | Solubility ([3]; bulk drug) [µg/mL] | LogP ([3]; bulk drug) | solubility in water [3] [µg/mL] | pKa ([3]; bulk drug) | pKa [3]
2.71 ± 0.24 (≈ 8.73 µM) | 5.3 ± 0.58 (≈ 17.1 µM) | 4.11 ± 0.52 (≈ 13.2 µM) | 5.64 ± 0.62 (≈ 18.2 µM) | C#C[C@]1(O)C=C[C@H]2[C@@H]3CCC4=CC(=O)CC[C@@H]4[C@H]3CC[C@@]21CC [gestodene] | ~100 | 10 to 20 | – | – | – | – | –
– | – | – | – | CC(C)Cc1ccc(C(C)C(=O)O)cc1 (stereo not shown) [ibuprofen] | – | – | 60 (≈ 291 µM) | 3.72 | 60 (≈ 291 µM) | – | –
– | – | – | – | Cc1cnc(NC(=O)C2=C(O)c3ccccc3S(=O)(=O)N2C)s1 [meloxicam] | – | – | 3.4 (≈ 9.68 µM) | 3.35 | 3.4 (≈ 9.68 µM) | 4 | 4
– | – | – | – | Cc1nc2n(c(=O)c1CCN1CCC(c3noc4cc(F)ccc34)CC1)CCCC2O (stereo not shown) [paliperidone] | – | – | – | 3.02 | – | 7.72 | 7.72
– | – | – | – | O=c1c(-c2ccc(O)cc2)coc2c([C@@H]3O[C@H](CO)[C@@H](O)[C@H](O)[C@H]3O)c(O)ccc12 [puerarin] | – | – | 4000 (≈ 9610 µM) | −0.67 | 4000 (≈ 9610 µM) | 6.45 | 6.45
